Experiment in all cases: inhibition of tumour cell growth, NCI panel, 48 h
The subject of assay [1] is UACC-257 melanoma.
Assay [2] relates to SK-MEL-5 melanoma.
Assay [3] concerns HCT-116 colon.
Assay [4] deals with HCC-2998 colon.
Assay [5] deals with LXFL 529 NSCLC.
Assay [6] relates to NCI-H522 lung.
In assay [7] the test system is LOX IMVI melanoma.
In assay [8] the test system is M19-MEL melanoma.
The subject of assay [9] is DU-145 prostate.
Assay [10] has as its system BT-549 breast.

Each structure is given as a SMILES string. Values joined by “and” are separate entries in the source; they are usually repeats but may differ in a detail not shown here. Equal entries are not always repeated.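 A five-concentration, 48-hour dose response in 96-well plates underlies each endpoint, interpolated linearly between surrounding concentrations. Abbreviation: GI50, concentration required for 50% inhibition of growth. TGI is the concentration that stops growth completely.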 Bounds are passed on as bounds.

This passage reports TGI and GI50 results from PubChem BioAssay (NCI).

For `C/C(=C\CNc1ncnc2c1ncn2C1CCCCO1)COP(=O)(O)O` (stereo not given), the TGI in assay [1], in [2], in assay [3], in assay [4], in assay [5] and in assay [6] was > 100 µM each time. Besides, the TGI in assay [7] and in assay [8] was > 100 µM in each case.
As to `CC(C)(C)c1cc(Cc2ccc(S(C)(=O)=O)cc2)c(O)c(C(C)(C)C)c1`, the TGI in [1] was 31 µM; in [2], 30 µM; in [3] it was 27 µM; in [4], 29.8 µM; in [5], 29.2 µM; in assay [6], 24.9 µM. The TGI is 27.7 µM in assay [7] and 32.7 µM in assay [8].
`Nc1nc2c(ncn2C2OC(CO)C(O)C2O)c(=O)o1` (stereo not given): the TGI in assay [1], in assay [2], in assay [3], in [4], in assay [5] and in assay [6] was > 100 µM each time. Also, the TGI in assay [9], in assay [7] and in [8] was > 100 µM each time.
In the case of `COc1c(CC(C)=O)c2ccccc2n1C(C)=O`, the TGI in assay [1], in assay [3], in assay [4], in assay [5] and in assay [8] was > 100 µM in each case.
For the compound `[pH]1p2[pH]p3p1p3[pH]2.c1cc[c]([Ge]([c]2ccccc2)[c]2ccccc2)cc1.c1cc[c]([Ge]([c]2ccccc2)[c]2ccccc2)cc1.c1cc[c]([Ge]([c]2ccccc2)[c]2ccccc2)cc1`, the GI50 is 15.2 µM in assay [1]; 34.1 µM in assay [2]; 22.2 µM in [3]; 17 µM in [4]; 11.6 µM in assay [5]; 4.46 µM in assay [6]. Moreover, the GI50 in assay [7] and in [8] was 14.4 µM each time. The TGI was determined as 31.7 µM in [1]; 53.1 µM in [2]; 62.3 µM in [3]; 31 µM in assay [4]; 24.3 µM in assay [5]; 17.8 µM in assay [6]. Besides, the TGI was 30.4 µM in [7] and 28.6 µM in assay [8].
As to `CC(=O)[CH-]C(=O)c1ccccc1.CC(=O)[CH-]C(=O)c1ccccc1.CC(=O)[CH-]C(=O)c1ccccc1.[Cl-].[Hf+4]`, the GI50 in assay [1] is 19.9 µM; in [2], 32.5 µM; in assay [5] it was 39.4 µM; in assay [6], 26.5 µM; in assay [7], 14.4 µM; in assay [8], 27.3 µM. In addition, the TGI is 75.3 µM in [1]; > 100 µM in assay [2]; > 100 µM in assay [5]; > 100 µM in assay [6]; 92.2 µM in assay [7]; > 100 µM in assay [8].
For `c1ccc(-c2sc(-c3ccccc3)c3c2C(c2ccccc2)c2c(-c4ccccc4)sc(-c4ccccc4)c2C3c2ccccc2)cc1` (stereo not given), the TGI in assay [1], in assay [2], in assay [3], in [4], in [5] and in assay [6] was > 100 µM throughout. The TGI in assay [7] and in [8] was > 100 µM throughout.
Take `C=C1C2CCCC1C1(S(C)(=O)=O)CCCCC21O` (stereo not given): the TGI in [1], in assay [2], in assay [3], in [4], in [5] and in assay [6] was > 100 µM in each case. For the same compound, the TGI in [8] is > 100 µM.
For `CCP(C)(=O)CC`, the TGI in assay [1], in [2], in [3], in assay [4], in [5] and in assay [7] was > 100 µM throughout. In assay [8], the TGI was > 100 µM.
Regarding `CS(=O)(=O)ON1C(=O)c2ccc(N)cc2C1=O`, the TGI in assay [1] was > 31.6 µM; in [2], > 100 µM; in assay [3] it was > 100 µM; in [4] it was > 100 µM; in assay [5], > 100 µM; in [6], 43.2 µM. Further, the TGI in assay [7] and in assay [8] was > 100 µM each time.
Take `Cc1cc(C)c([O-])c(-[n+]2c(-c3ccccc3)cc(-c3ccccc3)cc2-c2ccccc2)c1`: the TGI was 10.1 µM in assay [1]; 5.71 µM in [2]; 10.9 µM in assay [3]; 13.6 µM in [4]; 14.4 µM in assay [5]; 11.1 µM in [7]. In addition, in [8], the TGI turned out to be 13.2 µM.
As to `O=C(CC(=O)N1N=C(n2ccc3ccccc32)CC1c1ccccc1)Nc1ccccc1Cl` (stereo not given), the TGI in assay [1], in assay [3], in assay [4], in assay [5], in assay [6] and in [7] was > 100 µM each time. In addition, the TGI in assay [8] was > 100 µM.
For the compound `Cc1[nH]c2ccccc2c1/C=C/c1c(C)[nH]c2ccccc12`, the TGI in assay [1], in assay [2], in assay [3], in assay [4], in [5] and in assay [8] was > 100 µM throughout.
On to `CC[C@@]1(O)C(=O)OCc2c1cc1n(c2=O)Cc2cc3cc(O)ccc3nc2-1`, for which the GI50 in assay [1] is 0.047 µM and 0.156 µM; in assay [2] it was 0.0247 µM and 0.0167 µM; in assay [3], 0.0228 µM and 0.0176 µM; in assay [4], 0.0589 µM and 0.0721 µM; in assay [6], < 0.0075 µM; in assay [8] it was 0.0634 µM. Besides, the TGI in assay [1] was 0.481 µM and 2.1 µM; in assay [2], 0.111 µM and 0.0959 µM; in [3], 13.7 µM; in [4] it was 0.912 µM and 0.847 µM; in assay [5], 1.91 µM; in assay [6], 0.103 µM and 0.447 µM. Besides, the TGI in [9] was 0.0786 µM; in [7] it was 1.17 µM and 0.224 µM; in assay [8] it was 0.589 µM and 1.01 µM; in [10], 26.6 µM.
In the case of `Cc1c(C(=O)/C=C/c2ccc([N+](=O)[O-])cc2)[n+](=O)c2ccccc2n1[O-]`, the TGI is > 100 µM in [1]; > 100 µM in assay [3]; > 100 µM in assay [4]; > 100 µM in assay [5]; 53.6 µM in assay [6]; > 100 µM in [7]. For the same compound, in assay [8], the TGI was > 100 µM.
For `NC(N)=NCCCC(Nc1c2ccccc2nc2ccccc12)C(=O)O` (stereo not given), the TGI in assay [1], in [3], in assay [4], in [5], in [6] and in assay [7] was > 100 µM throughout. The TGI in assay [8] is > 100 µM.
As to `COC12OCCN(C)C1=CC(=O)C1N=NCC12` (stereo not given), the TGI in assay [1], in assay [2], in assay [3], in assay [4], in [5] and in assay [6] was > 100 µM in each case. The TGI in assay [7] and in assay [8] was > 100 µM throughout.
In the case of `CN(C)CC1CCCC/C1=N\OC(=O)c1ccccc1` (stereo not given), the TGI in [1], in assay [2], in assay [3], in assay [4], in [5] and in assay [6] was > 100 µM in each case. Besides, the TGI in assay [7] and in assay [8] was > 100 µM each time.
On to `CCOC(=O)C1(C)C2=CC=C(O2)C(C)(C)C2=CC=C(O2)C(C)(C)C2=CC=C(O2)C(C)(C)C2=CC=C1O2`, for which the TGI in assay [1], in [3], in assay [4], in assay [5], in [6] and in assay [7] was > 100 µM each time. The TGI in assay [8] was > 100 µM.
Take `CCN(CC)CCN1C(=O)c2c(c3c4cccc(Cl)c4n(C4OC(CO)C(OC)C(O)C4O)c3c3[nH]c4c(Cl)cccc4c23)C1=O` (stereo not given): the GI50 in assay [3] is < 0.0001 µM; in [4], 0.000104 µM and < 0.0299 µM and < 0.01 µM; in [5], 0.000116 µM; in [6], < 0.01 µM; in [7] it was < 0.0001 µM; in assay [8], 0.000144 µM. The TGI is 0.21 µM and 0.146 µM in assay [6]; 0.0845 µM in [9]; 1.66 µM in assay [10].
As to `O=c1[nH]c(-c2ccccc2)nc2cc([N+](=O)[O-])c(/C(Cl)=C/c3ccccc3)cc12`, the TGI was 48.3 µM in [1]; 74 µM in assay [2]; > 100 µM in assay [3]; > 100 µM in assay [4]; 78.4 µM in assay [5]; 81.7 µM in assay [6]. For the same compound, the TGI in assay [8] was > 100 µM.
As to `CC1CN1c1c(C(=O)/C=C/c2ccc(F)cc2)c(-c2ccccc2)nn(C)c1=O` (stereo not given), the TGI was determined as 27.4 µM in assay [1]; 29.5 µM in assay [2]; 27.3 µM in [3]; 28.7 µM in assay [4]; 31.7 µM in assay [5]; 26.9 µM in assay [7]. In assay [8], this compound had a TGI of 27.7 µM.
On to `O=C1CC[C@@H](S(=O)(=O)c2ccccc2)[C@H](/C=C/c2ccccc2)O1`, for which the TGI in [1], in [2], in assay [3], in assay [4], in assay [5] and in assay [6] was > 100 µM throughout. For the same compound, the TGI in assay [7] and in assay [8] was > 100 µM each time.
For `NC(=S)N/N=C/C(O[C@@H](/C=N/NC(N)=S)CO)n1cnc2c(N)ncnc21` (stereo not given in full), the TGI in assay [1] was > 100 µM; in assay [2], > 100 µM; in assay [3] it was > 61.9 µM; in assay [4] it was > 100 µM; in assay [5] it was > 100 µM; in [6] it was > 72.4 µM. Besides, the TGI in assay [7] and in assay [8] was > 100 µM throughout.
